The record followed here is ChEMBL document CHEMBL1201862, “PubChem BioAssay data set” (2004).

Each structure is given as a SMILES string. Active and inactive are the calls of the source.

A short description of experiment [1]: THP-1 cell cytotoxicity, dose response, cytotoxicity control for non-replicating M. tuberculosis project (AID 489025). The format is functional.
Experiment [2] in a line: C. albicans growth with fluconazole, confirmation, fluorescence, retest (AID 2467). The format is functional, cell-based.
In a further experiment the test system is Streptococcus. Put plainly: Group A Streptococcus viability loss, dose response, counter-screen for streptokinase expression inhibitor project, luminescence, BacTiterGlo (AID 1915).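 Also: potency for reduction of bacterial viability or growth.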 The format is functional, organism-based.
The nature of experiment [3]: Vero E6 cell cytotoxicity, dose response, cytotoxicity control for non-replicating M. tuberculosis project, secondary assay (AID 492998). As to conditions: Vero C1008. The format is functional, VeroE6.
The nature of experiment [4]: NIH-3T3 fibroblast cytotoxicity, dose response, cytotoxicity control, cell-based, fluorescence, Alamar Blue, secondary assay (AID 2327).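 Also: NIH-3T3 mouse fibroblasts cultured with fluconazole at 8 µg/mL.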 The experiment is classed as functional. On the technique in general: Alamar Blue is a resazurin reagent that responds to reducing activity.
A further experiment concerns the target T1, Caspase-7 (Homo sapiens, UniProt P55210).
T1 sequence (P55210 whole entry): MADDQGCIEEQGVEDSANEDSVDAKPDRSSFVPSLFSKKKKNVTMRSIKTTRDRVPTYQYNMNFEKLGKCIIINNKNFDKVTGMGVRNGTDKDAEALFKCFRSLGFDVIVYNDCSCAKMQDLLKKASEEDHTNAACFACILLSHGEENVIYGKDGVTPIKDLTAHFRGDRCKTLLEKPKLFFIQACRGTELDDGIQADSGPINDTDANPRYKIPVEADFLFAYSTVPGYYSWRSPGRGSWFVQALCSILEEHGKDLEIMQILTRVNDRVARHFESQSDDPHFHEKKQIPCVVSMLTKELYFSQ
Put plainly: procaspase-7 activators, dose response, counter-screen for procaspase-3 activator project, biochemical, absorbance (AID 489013). On the technique in general: A counterscreen serves to expose hits that act by an unwanted route or on another target.

A further experiment in a line: cells. The format is functional.
The next experiment concerns the target T2, Caspase-3 (Homo sapiens, UniProt P42574).
T2 sequence (P42574 whole entry): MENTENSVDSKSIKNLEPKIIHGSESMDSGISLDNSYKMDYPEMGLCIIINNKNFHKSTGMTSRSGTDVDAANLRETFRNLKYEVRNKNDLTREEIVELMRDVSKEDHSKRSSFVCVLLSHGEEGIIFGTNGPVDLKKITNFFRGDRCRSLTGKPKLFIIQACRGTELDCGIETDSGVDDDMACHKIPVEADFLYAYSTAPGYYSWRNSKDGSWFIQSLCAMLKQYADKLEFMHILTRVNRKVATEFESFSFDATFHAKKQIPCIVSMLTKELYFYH
Nature of the experiment: procaspase-3 activators, dose response, biochemical, absorbance (AID 489014).

The test system of experiment [5] is Streptococcus sp. 'group A'. Nature of the experiment: growth inhibition of control SK(-) GAS strain, dose response, counter-screen for streptokinase expression inhibitor project, luminescence, kanamycin, BacTiterGlo, confirmation (AID 1900). The experiment is classed as functional, organism-based.
Experiment [6] addresses T3, Short transient receptor potential channel 4 (Mus musculus, UniProt Q9QUQ5).
T3 sequence (Q9QUQ5 whole entry): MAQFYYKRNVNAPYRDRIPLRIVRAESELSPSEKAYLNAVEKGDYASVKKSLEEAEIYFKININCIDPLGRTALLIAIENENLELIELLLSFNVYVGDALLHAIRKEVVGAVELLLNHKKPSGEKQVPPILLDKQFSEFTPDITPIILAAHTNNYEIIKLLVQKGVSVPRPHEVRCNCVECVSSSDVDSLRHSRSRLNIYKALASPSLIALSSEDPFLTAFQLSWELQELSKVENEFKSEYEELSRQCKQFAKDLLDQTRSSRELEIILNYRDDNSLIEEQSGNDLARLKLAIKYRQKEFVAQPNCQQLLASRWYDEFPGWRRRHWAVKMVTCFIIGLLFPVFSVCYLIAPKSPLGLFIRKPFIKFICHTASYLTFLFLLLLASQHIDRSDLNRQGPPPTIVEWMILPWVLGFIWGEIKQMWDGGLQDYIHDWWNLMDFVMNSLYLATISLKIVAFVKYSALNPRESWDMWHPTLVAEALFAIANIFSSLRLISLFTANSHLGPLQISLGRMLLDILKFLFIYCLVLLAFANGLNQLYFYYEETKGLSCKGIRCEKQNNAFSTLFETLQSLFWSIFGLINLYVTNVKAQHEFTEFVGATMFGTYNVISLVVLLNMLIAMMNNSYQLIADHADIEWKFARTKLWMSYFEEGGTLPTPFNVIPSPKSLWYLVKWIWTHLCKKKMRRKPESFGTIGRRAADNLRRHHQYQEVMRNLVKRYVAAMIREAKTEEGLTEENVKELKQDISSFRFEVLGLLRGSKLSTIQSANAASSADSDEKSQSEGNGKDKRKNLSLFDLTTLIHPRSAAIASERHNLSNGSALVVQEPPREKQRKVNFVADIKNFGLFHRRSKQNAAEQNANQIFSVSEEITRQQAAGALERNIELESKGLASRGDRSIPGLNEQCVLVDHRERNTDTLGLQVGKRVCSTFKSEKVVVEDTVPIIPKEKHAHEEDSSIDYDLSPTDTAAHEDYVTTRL
Put plainly: TRPC4 positive allosteric modulators, dose response, cell-based, HEK293 TRPC4/mu-opioid, Fluo-4 calcium, EC20 DAMGO (AID 434941).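 Also: HEK293 cells coexpressing TRPC4 and mu opioid receptor stimulated by EC20 DAMGO.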 The experiment is classed as functional.

The nature of experiment [7]: cytotoxicity toward NIH3T3 fibroblasts, dose response, counter-screen, cell-based, ATP luminescence, mouse fibroblasts (AID 2010).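 Also: cells exposed to compound for about 90 hours before reading.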 The format is functional.
The target of experiment [8] is T4, Ubiquitin-conjugating enzyme E2 N (Homo sapiens, UniProt P61088).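 Also: Dose-response confirmation in a TR-FRET assay detecting UBC13-driven polyubiquitin chain formation, inhibition measured.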
T4 sequence (P61088 whole entry): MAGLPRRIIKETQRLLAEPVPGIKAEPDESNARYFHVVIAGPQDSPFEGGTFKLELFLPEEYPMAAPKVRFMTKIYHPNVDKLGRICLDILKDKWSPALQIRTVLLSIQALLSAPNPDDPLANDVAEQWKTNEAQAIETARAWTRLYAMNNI
The format is functional.

In another experiment the test system is Vero. Nature of the experiment: host cell cytotoxicity of antiviral hits, dose response, cytotoxicity control for West Nile virus antiviral project, secondary assay (AID 1650). The format is functional. As to conditions: Chlorocebus sabaeus.
Experiment [9] can be described thus: inhibitors of intracellular T. cruzi replication, confirmation, NIH3T3 host cells, beta-gal luminescence (AID 2044).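 Also: intracellular parasites grown in NIH/3T3 mouse fibroblasts as host cells; luminescent beta-galactosidase reporter signal from transgenic T. cruzi replicating inside host cells; inhibitors lower the luminescence signal.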 The experiment is classed as functional, cell-based.
For the next experiment, the target named is T5, ORF 73 (Human herpesvirus 8, UniProt O40947).
T5 sequence (O40947 whole entry): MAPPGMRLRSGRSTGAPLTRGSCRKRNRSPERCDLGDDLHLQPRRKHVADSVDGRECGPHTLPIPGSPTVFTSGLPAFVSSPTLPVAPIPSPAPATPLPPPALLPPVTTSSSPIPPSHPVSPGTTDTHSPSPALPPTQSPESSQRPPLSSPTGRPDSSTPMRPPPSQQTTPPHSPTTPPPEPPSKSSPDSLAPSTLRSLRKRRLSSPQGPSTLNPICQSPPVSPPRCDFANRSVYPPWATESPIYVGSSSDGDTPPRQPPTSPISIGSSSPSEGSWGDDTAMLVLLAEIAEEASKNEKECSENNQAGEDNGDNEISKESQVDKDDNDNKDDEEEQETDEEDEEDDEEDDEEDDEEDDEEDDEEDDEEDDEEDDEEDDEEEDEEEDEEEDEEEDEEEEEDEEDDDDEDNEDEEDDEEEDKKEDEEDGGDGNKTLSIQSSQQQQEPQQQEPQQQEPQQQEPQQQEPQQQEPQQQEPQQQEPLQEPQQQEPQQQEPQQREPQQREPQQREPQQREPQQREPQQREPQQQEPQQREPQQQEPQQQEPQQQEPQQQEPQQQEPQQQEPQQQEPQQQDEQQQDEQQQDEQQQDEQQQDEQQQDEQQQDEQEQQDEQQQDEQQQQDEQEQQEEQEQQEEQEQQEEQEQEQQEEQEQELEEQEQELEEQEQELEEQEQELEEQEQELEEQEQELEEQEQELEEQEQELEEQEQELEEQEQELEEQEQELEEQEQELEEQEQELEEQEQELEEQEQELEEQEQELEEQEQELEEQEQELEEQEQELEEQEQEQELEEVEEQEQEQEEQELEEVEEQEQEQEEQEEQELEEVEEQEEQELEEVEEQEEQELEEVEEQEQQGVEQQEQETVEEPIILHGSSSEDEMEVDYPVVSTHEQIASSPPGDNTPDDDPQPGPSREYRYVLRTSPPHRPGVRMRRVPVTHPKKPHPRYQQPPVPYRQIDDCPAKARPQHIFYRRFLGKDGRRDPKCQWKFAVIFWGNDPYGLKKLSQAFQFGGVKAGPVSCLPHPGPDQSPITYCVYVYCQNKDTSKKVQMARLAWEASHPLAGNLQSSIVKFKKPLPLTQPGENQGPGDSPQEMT
Put plainly: inhibitors of C-LANA binding to LBS DNA, dose response, biochemical, fluorescence polarization, cherry-picked samples (AID 504725).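 Also: fluorescence polarization of a labeled DNA duplex reporting LANA DNA binding; potency is for inhibitors that block LANA binding to the DNA.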 Details: species or system Human gammaherpesvirus 8. (In general: Fluorescence polarisation rises when a labelled molecule tumbles more slowly, as on binding a larger partner.)

The target of another experiment is Troponin, cardiac muscle (Homo sapiens, UniProt P19429+P45379+P63316). Nature of the experiment: inhibitors of cardiac thin filament calcium sensitivity, dose response, biochemical, fluorescence, cardiac regulated thin filaments, triplicate IC50 (AID 504742). The experiment is classed as protein-complex assay.
For experiment [10], the target named is T6, Rac GTPase-activating protein 1 (Homo sapiens, UniProt Q9H0H5).
T6 sequence (Q9H0H5 whole entry): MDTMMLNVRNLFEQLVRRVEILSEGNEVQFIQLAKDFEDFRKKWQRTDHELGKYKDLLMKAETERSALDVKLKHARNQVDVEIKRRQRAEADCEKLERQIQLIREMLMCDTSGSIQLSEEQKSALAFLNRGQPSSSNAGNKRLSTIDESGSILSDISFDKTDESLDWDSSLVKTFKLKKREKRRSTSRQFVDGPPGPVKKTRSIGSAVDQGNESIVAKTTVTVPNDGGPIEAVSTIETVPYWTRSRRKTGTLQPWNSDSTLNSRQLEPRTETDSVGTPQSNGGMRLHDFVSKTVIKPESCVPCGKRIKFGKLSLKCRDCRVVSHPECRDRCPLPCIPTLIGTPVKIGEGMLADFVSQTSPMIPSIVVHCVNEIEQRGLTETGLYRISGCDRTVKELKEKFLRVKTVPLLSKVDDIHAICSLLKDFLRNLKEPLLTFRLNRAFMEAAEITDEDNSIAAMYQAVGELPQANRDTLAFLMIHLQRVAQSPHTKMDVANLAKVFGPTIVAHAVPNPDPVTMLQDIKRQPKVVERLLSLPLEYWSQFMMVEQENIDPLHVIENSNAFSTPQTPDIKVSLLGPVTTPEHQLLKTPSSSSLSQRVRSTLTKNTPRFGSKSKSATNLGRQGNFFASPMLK
Nature of the experiment: MgcRacGAP GTPase-activating activity inhibitors, confirmation, biochemical, ADP Hunter fluorescence, primary and confirmatory (AID 624330). The experiment is classed as functional.

For experiment [11], the target named is T7, Heat shock factor protein 1 (Mus musculus, UniProt P38532).
T7 sequence (P38532 whole entry): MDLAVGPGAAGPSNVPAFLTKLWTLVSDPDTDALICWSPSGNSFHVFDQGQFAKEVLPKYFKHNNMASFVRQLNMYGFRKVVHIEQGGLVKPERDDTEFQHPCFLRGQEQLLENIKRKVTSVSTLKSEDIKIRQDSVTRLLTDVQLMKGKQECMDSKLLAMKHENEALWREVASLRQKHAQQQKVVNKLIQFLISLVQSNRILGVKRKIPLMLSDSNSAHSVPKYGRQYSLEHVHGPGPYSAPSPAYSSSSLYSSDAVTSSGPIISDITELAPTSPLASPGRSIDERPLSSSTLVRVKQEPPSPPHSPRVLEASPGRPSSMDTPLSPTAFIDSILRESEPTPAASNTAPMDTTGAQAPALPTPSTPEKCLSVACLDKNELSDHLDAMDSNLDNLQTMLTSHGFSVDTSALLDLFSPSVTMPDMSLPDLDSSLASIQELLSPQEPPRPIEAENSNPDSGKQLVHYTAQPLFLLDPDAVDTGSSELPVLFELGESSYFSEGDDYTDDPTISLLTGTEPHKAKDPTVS
Put plainly: inhibition of MG132-induced HSE-luciferase signal, confirmation, cell-based, NIH3T3, luminescence, dose retest (AID 2382).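 Also: NIH3T3 fibroblasts with HSF1-driven luciferase reporter stressed by proteasome inhibitor MG132; luminescence from HSF1-driven luciferase expression after 8 hours of MG132 stress.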 The format is functional.

In general, CC50 refers to the concentration that lowers cell viability or growth by half. For orientation: EC50 means the concentration that produces a half-maximal response. One may read the IC50 as the concentration that inhibits the measured activity by half. In the case of `CC(=O)Oc1c(-c2ccc(Br)o2)oc2ccccc2c1=O`, the CC50 in experiment [1] is > 40 µM (active); in experiment [3], 16.3 µM (active). Moreover, the EC50 is 1.36 µM (active) in experiment [2]; 9.2 µM (active) in the experiment on Streptococcus; > 150 µM (inactive) in experiment [4]; > 85.3 µM (inactive) at Caspase-7; 33.4 µM (inactive) on Caspase-3; 2.26 µM (active) in experiment [5]. Besides, the IC50 in the experiment “cells” is 4.63 µM (active).
In the case of `Cc1cc2oc(C(=O)N(Cc3ccccc3)C3CCS(=O)(=O)C3)cc(=O)c2cc1Cl` (stereo unspecified), the EC50 in experiment [6] was 3.76 µM (active).
Take `CCCCN(CC)CCNC(=O)c1cc2c(=O)n(C)c3ccccc3c2s1`: the EC50 in [7] was > 60 µM (not active); in [9], 2.29 µM (active); in [6] it was 0.07 µM (active). Also, in experiment [8], the IC50 is > 20 µM (inactive). Besides, in the experiment with Vero, the CC50 was 69 µM (active).
For orientation: AC50 means the midpoint of the concentration-response curve, whichever way the signal moves. Regarding `O=C1C(=Cc2ccco2)CCC1=Cc1ccco1`, at ORF 73, the AC50 is 63 µM (active). The IC50 at Troponin, cardiac muscle is > 71.5 µM (inactive); in experiment [10], 32.4 µM (active).
Turning to `Cc1c(Cc2ccccc2)sc(/N=C/c2c(O)ccc3ccccc23)c1C(N)=O`, the EC50 in [11] was > 195 µM (not active); on Caspase-7, > 85.3 µM (inactive); on Caspase-3 it was > 85.3 µM (inactive).
